The source of these data is ChEMBL document CHEMBL1275603, “Incidence and antimicrobial susceptibility of Escherichia coli and Klebsiella pneumoniae with extended-spectrum beta-lactamases in community- and hospital-associated intra-abdominal infections in Europe: results of the 2008 Study for Monitoring Antimicrobial Resistance Trends (SMART)” (2010).

Holding throughout (format): functional
In assay [1] the test system is Escherichia coli. In words: Antimicrobial activity against hospital-acquired Escherichia coli obtained from patient with intra-abdominal infection assessed as susceptible isolates by EUCAST method.
In assay [2] the test system is Escherichia coli. In words: Antimicrobial activity against community-acquired Escherichia coli obtained from patient with intra-abdominal infection assessed as susceptible isolates by EUCAST method.
Assay [3] has as its system Escherichia coli. The assay is described as follows: Antimicrobial activity against community-acquired Escherichia coli expressing extended spectrum beta-lactamase obtained from patient with intra-abdominal infection assessed as susceptible isolates by EUCAST method.
Assay [4] has as its system Klebsiella pneumoniae. The assay is described as follows: Antimicrobial activity against hospital-acquired Klebsiella pneumoniae obtained from patient with intra-abdominal infection assessed as susceptible isolates by EUCAST method.
The test system of assay [5] is Klebsiella pneumoniae. The assay is described as follows: Antimicrobial activity against community-acquired Klebsiella pneumoniae expressing extended spectrum beta-lactamase obtained from patient with intra-abdominal infection assessed as susceptible isolates by EUCAST method.
Assay [6] deals with Escherichia coli. The assay is described as follows: Antimicrobial activity against hospital-acquired Escherichia coli expressing extended spectrum beta-lactamase obtained from patient with intra-abdominal infection assessed as susceptible isolates by EUCAST method.
For assay [7], the system named is Klebsiella pneumoniae. The assay is described as follows: Antimicrobial activity against hospital-acquired Klebsiella pneumoniae expressing extended spectrum beta-lactamase obtained from patient with intra-abdominal infection assessed as susceptible isolates by EUCAST method.
Assay [8] concerns Klebsiella pneumoniae. The assay is described as follows: Antimicrobial activity against community-acquired Klebsiella pneumoniae obtained from patient with intra-abdominal infection assessed as susceptible isolates by EUCAST method.
Assay [9] concerns Escherichia coli. In words: Antimicrobial activity against hospital-acquired Escherichia coli expressing extended spectrum beta-lactamase obtained from patient with intra-abdominal infection assessed as susceptible isolates by EUCAST method in presence of beta-lactamase inhibitor Sulbactam.
The test system of assay [10] is Klebsiella pneumoniae. The assay is described as follows: Antimicrobial activity against community-acquired Klebsiella pneumoniae obtained from patient with intra-abdominal infection assessed as susceptible isolates by EUCAST method in presence of beta-lactamase inhibitor Sulbactam.
For assay [11], the system named is Klebsiella pneumoniae. The assay is described as follows: Antimicrobial activity against hospital-acquired Klebsiella pneumoniae expressing extended spectrum beta-lactamase obtained from patient with intra-abdominal infection assessed as susceptible isolates by EUCAST method in presence of beta-lactamase inhibitor Sulbactam.
Assay [12] concerns Klebsiella pneumoniae. In words: Antimicrobial activity against community-acquired Klebsiella pneumoniae expressing extended spectrum beta-lactamase obtained from patient with intra-abdominal infection assessed as susceptible isolates by EUCAST method in presence of beta-lactamase inhibitor Sulbactam.
The subject of assay [13] is Escherichia coli. In words: Antimicrobial activity against hospital-acquired Escherichia coli obtained from patient with intra-abdominal infection assessed as susceptible isolates by EUCAST method in presence of beta-lactamase inhibitor Sulbactam.
In assay [14] the test system is Escherichia coli. In words: Antimicrobial activity against community-acquired Escherichia coli expressing extended spectrum beta-lactamase obtained from patient with intra-abdominal infection assessed as susceptible isolates by EUCAST method in presence of beta-lactamase inhibitor Sulbactam.
Assay [15] relates to Escherichia coli. The assay is described as follows: Antimicrobial activity against community-acquired Escherichia coli obtained from patient with intra-abdominal infection assessed as susceptible isolates by EUCAST method in presence of beta-lactamase inhibitor Sulbactam.
In assay [16] the test system is Klebsiella pneumoniae. In words: Antimicrobial activity against hospital-acquired Klebsiella pneumoniae obtained from patient with intra-abdominal infection assessed as susceptible isolates by EUCAST method in presence of beta-lactamase inhibitor Sulbactam.

In the case of `NCC[C@H](O)C(=O)N[C@@H]1C[C@H](N)[C@@H](O[C@H]2O[C@H](CN)[C@@H](O)[C@H](O)[C@H]2O)[C@H](O)[C@H]1O[C@H]1O[C@H](CO)[C@@H](O)[C@H](N)[C@H]1O` [AMIKACIN], the Activity in assay [1] is 97%; in assay [2] it was 98.5%; in assay [3], 59.5%; in [4], 92.7%; in assay [5], 75%; in assay [6] it was 53.7%. Further, the Activity in assay [7] was determined as 66%; in assay [8], 98.6%.
Regarding `CC1(C)S[C@@H]2[C@H](NC(=O)[C@H](N)c3ccccc3)C(=O)N2[C@H]1C(=O)O` [AMPICILLIN], the Activity in [9] is listed as 9.1%; in assay [10], 79.2%; in assay [11] it was 6.4%; in assay [12], 0%; in assay [13], 44.5%; in assay [14] it was 5.4%. Also, the Activity amounted to 53% in assay [15] and 62.9% in [16].
Turning to `CO/N=C(\C(=O)N[C@@H]1C(=O)N2C(C(=O)[O-])=C(C[N+]3(C)CCCC3)CS[C@H]12)c1csc(N)n1` [CEFEPIME], the Activity is listed as 98.5% in [2]; 8.1% in assay [3]; 91.6% in [4]; 0% in assay [5]; 9.9% in [6]; 10.6% in [7]. Further, the Activity in assay [8] was 98.6%.
For the compound `CO/N=C(\C(=O)N[C@@H]1C(=O)N2C(C(=O)O)=C(COC(C)=O)CS[C@H]12)c1csc(N)n1` [CEFOTAXIME], the Activity came to 95.8% in [1]; 98.7% in assay [2]; 0% in assay [3]; 92.1% in assay [4]; 0% in [5]; 3.3% in [6]. Besides, the Activity worked out at 6.4% in assay [7] and 100% in assay [8].
`CC(C)(O/N=C(\C(=O)N[C@@H]1C(=O)N2C(C(=O)[O-])=C(C[n+]3ccccc3)CS[C@H]12)c1csc(N)n1)C(=O)O` [CEFTAZIDIME]: the Activity was determined as 94.3% in [1]; 97.2% in assay [2]; 8.1% in [3]; 91% in [4]; 0% in assay [5]; 5.8% in assay [6]. Also, the Activity is recorded as 0% in assay [7] and 98.6% in [8].
Take `CO/N=C(\C(=O)N[C@@H]1C(=O)N2C(C(=O)O)=C(CSc3nc(=O)c(O)nn3C)CS[C@H]12)c1csc(N)n1` [CEFTRIAXONE]: the Activity in assay [1] was determined as 95.8%; in assay [2] it was 98.3%; in assay [3], 2.7%; in assay [4] it was 90.5%; in [5] it was 0%; in [6] it was 3.3%. Moreover, the values for the Activity in assay [7] and in assay [8] were 4.3% and 98.6%, respectively.
`O=C(O)c1cn(C2CC2)c2cc(N3CCNCC3)c(F)cc2c1=O` [CIPROFLOXACIN]: the Activity in assay [1] was determined as 78.3%; in assay [3], 29.7%; in [4] it was 79.2%; in [5], 50%; in [6], 22.3%; in [7] it was 29.8%. Moreover, the Activity in assay [8] was 94.4%.
For `C[C@@H](O)[C@H]1C(=O)N2C(C(=O)O)=C(S[C@@H]3CN[C@H](C(=O)Nc4cccc(C(=O)O)c4)C3)[C@H](C)[C@H]12` [ERTAPENEM], the Activity in [1] stood at 98.9%; in assay [2] it was 99.3%; in [3], 100%; in assay [4], 93.3%; in assay [5] it was 100%; in assay [6] it was 99.2%. Moreover, the Activity is reported as 83% in assay [7] and 100% in [8].
With `C[C@@H](O)[C@H]1C(=O)N2C(C(=O)O)=C(SCCNC=N)C[C@H]12` [IMIPENEM ANHYDROUS], the Activity in assay [1] amounted to 99.6%; in assay [2], 99.8%; in assay [3] it was 100%; in [4], 94.9%; in assay [5], 100%; in assay [6], 100%. Moreover, the values for the Activity in [7] and in assay [8] were 89.4% and 100%, respectively.
Turning to `C[C@H]1COc2c(N3CCN(C)CC3)c(F)cc3c(=O)c(C(=O)O)cn1c23.C[C@H]1COc2c(N3CCN(C)CC3)c(F)cc3c(=O)c(C(=O)O)cn1c23.O` [LEVOFLOXACIN], the Activity in assay [1] was found to be 79.8%; in assay [2], 87%; in [3], 32.4%; in [4] it was 83.2%; in assay [5], 50%; in [6], 24.8%. Moreover, the Activity in assay [7] is given as 40.4%; in [8] it was 97.2%.
